Data from patent US9605005B2, “Alkynyl alcohols and methods of use” (Genentech, Inc., priority 2013, dated 2017).

How the values were obtained:
[1] = test system: p52 (NF-kB2) nuclear translocation, HeLa cells; experiment: p52 (NF-kB2) nuclear translocation assay in HeLa cells (non-classical NF-kB signaling, anti-lymphotoxin beta receptor antibody stimulated); assay type: cell-based; conditions: Homo sapiens, 100 ng/mL anti-lymphotoxin beta receptor antibody for 5 hours, read-out: p52 HeLa Transloc Assay (IC50)
Method: (§1) Several assays were developed to profile the cellular activities of NIK inhibitors.
(§2) (2) A second set of cell assay are used to define the selectivity of NIK inhibitors toward inhibition of classical vs. non-classical NF-kB signaling and rely on quantification of the nuclear translocation of p52 (NF-kB2) and REL-A (p65) using high content cellular imaging. For the p52 (non-classical NF-kB signaling) nuclear translocation assay, HeLa cells are treated with different concentrations of compounds (0.2% DMSO final) in medium containing 10% fetal bovine serum and then stimulated with 100 ng/mL of an anti-lymphotoxin beta receptor antibody (R&D Systems) for 5 hours. In the REL-A nuclear translocation assay, HeLa cells are incubated with compounds (0.2% DMSO final) for 4.5 hours in medium containing 10% fetal bovine serum before stimulating them with 10 ng/mL tumor necrosis factor (TNF)-α (R&D Systems) for 30 minutes. Cells are fixed with 4% paraformaldehyde, permeabilized by adding 0.1% Triton X-100 in phosphate buffered saline, and then are incubated with either 2 ug/mL anti-p52 antibody (Millipore) or 400 ng/mL anti-REL-A (p65) antibody (Santa Cruz Biotechnology). Finally, the cells are incubated with an Alexa488-labeled secondary antibody (Invitrogen) and DRAQ5 DNA stain (Biostatus). Imaging is carried out using an Opera reader (Perkin Elmer) and data are analyzed with the aid of Acapella software (Perkin Elmer). The p52 or REL-Atranslocation into the nucleus is quantified by the ratio of the nuclear to cytoplasmic signal intensity. […] The compounds in listed in Table 1 have the corresponding inhibitory value (IC50 in micromolar) for NIK p52 Translocation Assay as set forth in Table 2.
(§3) The compounds in listed in Table 1 have the corresponding inhibitory values (IC50 in micromolar) for the Translocation Assays as set forth in Table 2.

[2] = test system: REL-A (p65) nuclear translocation, HeLa cells; experiment: REL-A (p65) nuclear translocation assay in HeLa cells (classical NF-kB signaling, TNF-α stimulated); assay type: cell-based; conditions: Homo sapiens, 0.5 h; HeLa cells, 10 ng/mL TNF-α for 30 minutes; read-out: REL-A HeLa Transloc Assay (IC50)
Method: as §1, §2, §3

[3] = biological target: nuclear factor-kappa B (NF-kB)-inducing kinase (NIK) (Homo sapiens (Human), UniProt Q99558); experiment: NIK enzyme inhibition assay (Transcreener ADP, NIK ADP-FP); assay type: biochemical; conditions: purified NIK 0.5 nM, 10 μM ATP, fluorescence polarization; read-out: NIK ADP-FP (Ki μM)
Sequence of nuclear factor-kappa B (NF-kB)-inducing kinase (NIK) (Q99558 whole entry): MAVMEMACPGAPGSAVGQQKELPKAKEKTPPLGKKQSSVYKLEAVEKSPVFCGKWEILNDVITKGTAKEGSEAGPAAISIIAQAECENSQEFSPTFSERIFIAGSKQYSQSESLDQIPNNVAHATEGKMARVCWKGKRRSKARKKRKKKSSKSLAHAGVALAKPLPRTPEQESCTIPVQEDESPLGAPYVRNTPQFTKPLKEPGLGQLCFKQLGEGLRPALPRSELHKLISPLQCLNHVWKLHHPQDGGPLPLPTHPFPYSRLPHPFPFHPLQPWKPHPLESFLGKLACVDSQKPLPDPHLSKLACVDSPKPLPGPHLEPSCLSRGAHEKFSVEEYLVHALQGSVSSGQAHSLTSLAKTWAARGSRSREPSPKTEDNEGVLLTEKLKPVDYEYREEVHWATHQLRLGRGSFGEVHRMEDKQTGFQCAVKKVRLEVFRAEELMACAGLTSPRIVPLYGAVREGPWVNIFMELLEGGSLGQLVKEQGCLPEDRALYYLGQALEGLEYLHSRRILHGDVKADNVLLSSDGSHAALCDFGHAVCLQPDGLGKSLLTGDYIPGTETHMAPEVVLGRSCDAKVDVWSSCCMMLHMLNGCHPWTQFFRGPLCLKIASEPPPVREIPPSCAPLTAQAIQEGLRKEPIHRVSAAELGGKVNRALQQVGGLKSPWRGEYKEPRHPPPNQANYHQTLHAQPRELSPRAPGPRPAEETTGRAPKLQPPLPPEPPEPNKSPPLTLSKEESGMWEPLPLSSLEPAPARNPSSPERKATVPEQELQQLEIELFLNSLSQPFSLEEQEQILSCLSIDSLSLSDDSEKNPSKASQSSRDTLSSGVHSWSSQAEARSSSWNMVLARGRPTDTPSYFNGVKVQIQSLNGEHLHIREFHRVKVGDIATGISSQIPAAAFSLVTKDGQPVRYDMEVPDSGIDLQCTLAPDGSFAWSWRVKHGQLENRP

CN1CC[C@@](O)(C#Cc2cc(C#N)cc(-n3nc(C(N)=O)c4cccnc43)c2)C1=O [Compound 111, 1-[3-cyano-5-[2-[(3R)-3-hy-droxy-1-methyl-2-oxo-pyrroli-din-3-yl]ethynyl]phenyl] pyrazolo[3,4-b]pyridine-3-carboxamide]
IC50 [1]: 701 nM
IC50 [2]: 20000 nM
Ki [3]: 4.86 nM

C[C@@H](O)c1ccc2c(c1)c(C(N)=O)nn2-c1cccc(C#C[C@]2(O)CCN(C)C2=O)c1 [Compound 43, 5-[(1R)-1-hydroxyethyl]-1-[3-[2-[(3R)-3-hydroxy-1-meth-yl-2-oxo-pyrrolidin-3-yl]ethynyl]phenyl]indazole-3-carboxamide]
IC50 [1]: 921 nM
IC50 [2]: 20000 nM
Ki [3]: 1.6 nM

CN1CC[C@@](O)(C#Cc2cc(-n3nc(C(N)=O)c4cccnc43)cc(C(F)(F)F)c2)C1=O [Compound 36, 1-[3-[2-[(3R)-3-hydroxy-1-methyl-2-oxo-pyrrolidin-3-yl]ethynyl]-5-(trifluorometh-yl)phenyl]pyrazolo[3,4-b] pyridine-3-carboxamide]
IC50 [1]: 164 nM
IC50 [2]: 20000 nM
Ki [3]: 5.53 nM

CN1CC[C@@](O)(C#Cc2cccc(-n3nc(C(N)=O)c4c3CCC[C@H]4O)c2)C1=O [Compound 2, (4R)-4-hydroxy-1-[3-[2-[(3R)-3-hydroxy-1-methyl-2-oxo-pyrrolidin-3-yl]ethynyl]phenyl]-4,5,6,7-tetrahydroinda-zole-3-carboxamide]
IC50 [1]: 273 nM
IC50 [2]: 20000 nM
Ki [3]: 1.07 nM

CN1CC[C@@](O)(C#Cc2cccc(-n3nc(C(N)=O)c4c3CCN(c3ccncn3)C4)c2)C1=O [Compound 120, 1-[3-[2-[(3R)-3-hydroxy-1-methyl-2-oxo-pyrrolidin-3-yl]ethynyl]phenyl]-5-pyrimi-din-4-yl-6,7-dihydro-4H-pyra-zolo[4,5-c]pyridine-3-carbox-amide]
IC50 [1]: 1430 nM
IC50 [2]: 20000 nM
Ki [3]: 0.52 nM

CN1CC[C@@](O)(C#Cc2ccc(F)c(-n3nc(C(N)=O)c4c3CCC4)c2)C1=O [Compound 145, 1-[2-fluoro-5-[2-[(3R)-3-hy-droxy-1-methyl-2-oxo-pyrroli-din-3-yl]ethynyl]phenyl]-5,6-dihydro-4H-cyclopenta [c]pyrazole-3-carboxamide]
IC50 [1]: 266 nM
IC50 [2]: 20000 nM
Ki [3]: 1.24 nM

CN1CC[C@@](O)(C#Cc2cccc(-n3nc(C(N)=O)c4c3[C@H](O)CC4)c2)C1=O [Compound 169, (6R)-6-hydroxy-1-[3-[2-[(3R)-3-hydroxy-1-methyl-2-oxo-pyrrolidin-3-yl]ethynyl]phenyl]-5,6-dihydro-4H-cyclo-penta[c]pyrazole-3-carbox-amide]
IC50 [1]: 1120 nM
IC50 [2]: 20000 nM
Ki [3]: 2.96 nM

N#Cc1cc2c(cn1)c(C(N)=O)nn2-c1cccc(C#C[C@@]2(O)CCc3cccnc32)c1 [Compound 135, 6-cyano-1-[3-[2-[(7S)-7-hy-droxy-5,6-dihydrocyclopen-ta[b]pyridin-7-yl]ethynyl]phe-nyl]pyrazolo[4,3-c]pyridine-3-carboxamide]
IC50 [1]: 91.4 nM
IC50 [2]: 20000 nM
Ki [3]: 0.7 nM

CN1CC[C@@](O)(C#Cc2cccc(-n3nc(C(N)=O)c4cc(-c5cnn(C)c5)cnc43)c2)C1=O [Compound 104, 1-[3-[2-[(3R)-3-hydroxy-1-methyl-2-oxo-pyrrolidin-3-yl]ethynyl]phenyl]-5-(1-meth-ylpyrazol-4-yl)pyrazolo[3,4-b]pyridine-3-carboxamide]
IC50 [1]: 26.7 nM
IC50 [2]: 2000 nM
Ki [3]: 0.1 nM

CN1CC[C@@](O)(C#Cc2cccc(-n3nc(C(N)=O)c4c3CCC[C@@H]4O)c2)C1=O [Compound 3, (4S)-4-hydroxy-1-[3-[2-[(3R)-3-hydroxy-1-methyl-2-oxo-pyrrolidine-3-yl]ethynyl]phenyl]-4,5,6,7-tetrahydroinda-zole-3-carboxamide]
IC50 [1]: 544 nM
IC50 [2]: 20000 nM
Ki [3]: 1.13 nM

CN1CC[C@@](O)(C#Cc2cc(Cl)cc(-n3nc(C(N)=O)c4cccnc43)c2)C1=O [Compound 44, 1-[3-chloro-5-[2-[(3R)-3-hy-droxy-1-methyl-2-oxo-pyrroli-din-3-yl]ethynyl]phenyl] pyrazolo[3,4-b]pyridine-3-carboxamide]
IC50 [1]: 62 nM
IC50 [2]: 20000 nM
Ki [3]: 0.5 nM

CN1CC[C@@](O)(C#Cc2cccc(-n3nc(C(N)=O)c4cc(CC#N)ccc43)c2)C1=O [Compound 41, 5-(cyanomethyl)-1-[3-[2-[(3R)-3-hydroxy-1-methyl-2-oxo-pyrrolidin-3-yl]ethynyl]phenyl]indazole-3-carboxamide]
IC50 [1]: 52.5 nM
IC50 [2]: 20000 nM
Ki [3]: 0.32 nM

CN1CC[C@@](O)(C#Cc2ccnc(-n3nc(C(N)=O)c4c3CCC4)c2)C1=O [Compound 56, 1-[4-[2-[(3R)-3-hydroxy-1-methyl-2-oxo-pyrrolidin-3-yl]ethynyl]-2-pyridyl]-5,6-dihydro-4H-cyclopenta[c]py-razole-3-carboxamide]
IC50 [1]: 355 nM
IC50 [2]: 20000 nM
Ki [3]: 0.87 nM

CN1CC[C@@](O)(C#Cc2cccc(-c3nc(C(N)=O)n4ccc(C#N)cc34)c2)C1=O [Compound 90, 7-cyano-1-[3-[2-[(3R)-3-hy-droxy-1-methyl-2-oxo-pyrroli-din-3-yl]ethynyl]phenyl] imidazo[1,5-a]pyridine-3-car-boxamide]
IC50 [1]: 63.4 nM
IC50 [2]: 2000 nM
Ki [3]: 0.05 nM

CN1CC[C@@](O)(C#Cc2cccc(-n3nc(C(N)=O)c4ccc(F)cc43)c2)C1=O [Compound 189, 6-fluoro-1-[3-[2-[(3R)-3-hydroxy-1-methyl-2-oxo-pyrrolidin-3-yl]ethynyl]phenyl] indazole-3-carboxamide]
IC50 [1]: 95 nM
IC50 [2]: > 2000 nM
Ki [3]: 0.05 nM

NC(=O)c1nn(-c2cc(C#C[C@]3(O)CCc4cccnc43)ccn2)c2cc(F)ccc12 [Compound 72, 6-fluoro-1-[4-[2-[(7R)-7-hy-droxy-5,6-dihydrocyclopen-ta[b]pyridin-7-yl]ethynyl]-2-pyridyl]indazole-3-carbox-amide]
IC50 [1]: 247 nM
IC50 [2]: 20000 nM
Ki [3]: 0.14 nM

CN1CC[C@@](O)(C#Cc2cccc(-c3nc(C(N)=O)n4cccnc34)c2)C1=O [Compound 85, 8-[3-[2-[(3R)-3-hydroxy-1-methyl-2-oxo-pyrrolidin-3-yl]ethynyl]phenyl]imidazo[1,5-a]pyrimidine-6-carboxamide]
IC50 [1]: 38.6 nM
IC50 [2]: 19200 nM
Ki [3]: 0.05 nM

CN1CC[C@@](O)(C#Cc2cccc(-n3nc(C(N)=O)c4ccc(C#N)cc43)c2)C1=O [Compound 46, 6-cyano-1-[3-[2-[(3R)-3-hy-droxy-1-methyl-2-oxo-pyrroli-din-3-yl]ethynyl]phenyl] indazole-3-carboxamide]
IC50 [1]: 123 nM
IC50 [2]: 20000 nM
Ki [3]: 0.5 nM

CN1CC[C@@](O)(C#Cc2cccc(-n3nc(C(N)=O)c4ncccc43)c2)C1=O [Compound 164, 1-[3-[2-[(3R)-3-hydroxy-1-methyl-2-oxo-pyrrolidin-3-yl]ethynyl]phenyl)pyrazolo [4,3-b]pyridine-3-carboxamide]
IC50 [1]: 208 nM
IC50 [2]: 20000 nM
Ki [3]: 1.54 nM

CN1CC[C@@](O)(C#Cc2cccc(-c3nc(C(N)=O)n4ccccc34)c2)C1=O [Compound 77, 1-[3-[2-[(3R)-3-hydroxy-1-methyl-2-oxo-pyrrolidin-3-yl]ethynyl]phenyl]imidazo[1,5-a]pyridine-3-carboxamide]
IC50 [1]: 29.8 nM
IC50 [2]: 20000 nM

CN1CC[C@@](O)(C#Cc2cccc(-n3nc(C(N)=O)c4cccnc43)c2)C1=O [Compound 53, 1-[3-[2-[(3R)-3-hydroxy-1-methyl-2-oxo-pyrrolidin-3-yl]ethynyl]phenyl]pyrazolo [3,4-b]pyridine-3-carboxamide]
IC50 [1]: 37.9 nM
IC50 [2]: 20000 nM

CN1CC[C@@](O)(C#Cc2cccc(-c3nc(C(N)=O)c4ccccn34)c2)C1=O [Compound 88, 3-[3-[2-[(3R)-3-hydroxy-1-methyl-2-oxo-pyrrolidin-3-yl]ethynyl]phenyl]imidazo[1,5-a]pyridine-1-carboxamide]
IC50 [1]: 240 nM
IC50 [2]: 20000 nM

CN1CC[C@@](O)(C#Cc2cccc(-n3nc(C(N)=O)c4ccccc43)c2)C1=O [Compound 1, 1-[3-[2-[(3R)-3-hydroxy-1-methyl-2-oxo-pyrrolidin-3-yl]ethynyl]phenyl]indazole-3-carboxamide]
IC50 [1]: 57 nM
IC50 [2]: 20000 nM

CN1CC[C@@](O)(C#Cc2cccc(-n3nc(C(N)=O)c4cc(F)ccc43)c2)C1=O [Compound 13, 5-fluoro-1-[3-[2-[(3R)-3-hy-droxy-1-methyl-2-oxo-pyrroli-din-3-yl]ethynyl]phenyl] indazole-3-carboxamide]
IC50 [1]: 73 nM
IC50 [2]: 20000 nM
